Data published in US8410170B2, “Use of isothiocyanates compounds in treating prostatic diseases and skin cancer” (Wuxi JC Pharmaceutical Technology Co., Ltd., priority 2005, dated 2013).

What was measured:
PSA = assay: Western blot to detect PSA in LNCaP cells; assay type: cell-based, human; settings: 24 hrs
Method: (§1) The cells were harvested, washed and total cellular proteins were extracted as described previously (as Example 2). Fifty μg proteins were then subjected to electrophoresis in SDS-PAGE, electro-transferred to nitrocellulose filters, and immunoblotted initially with antibodies against AR, Sp1, and PSA. The same membranes were stripped and re-probed with β-actin for loading control. The result was recorded by ECL films.

[1] = test system: human prostate cancer cell line LNCaP; assay: MTT and SRB cell growth assay, LNCaP; assay type: cell-based; settings: LNCaP; for IC50: Homo sapiens, MTT and SRB, read-out: IC50, growth inhibition
Method: MTT and SRB method as described in the reference (Kreis, Budman et al. 1997). Briefly, human prostate cancer cells grown exponentially were aliquoted into 96-well plates at a density of 5000 cells/200 μl per well. Twenty-four hrs after the incubation, the cells were exposed for three or seven days to serial dilutions of indicated isothiocyanate. After the incubation, 100 μl of the medium was removed from each of the wells and 50 μl solution of 3-(4,5-dimethyl-thiazol-2-yl)-2,5-diphenyltetrazolium bromide (MTT) was added, the cells were incubated for an additional 4 hrs and then 200 μl of 0.04 N HCl-isopropanol was added to each well to dissolve the black formazan precipitates. The absorbance was measured at wavelength 540 nm. For SRB method, remove the medium after 72 hrs. The cells on 96-well dishes were fixed with 10% trichloride acetic acid for 1 hr, air-dried for 24 hrs. The cells were then stained with 50 μl of SRB (sulforhodamine B) for […]. After extensive washes with 1% acetic acid for 5 times, air-dried, the purple protein-SRB complex was dissolved in 200 μl 10 mM Tris-HCl buffer (pH 10.0), and the absorbance was measured at the wavelength of 540 and 630 nm. The percent of cell survival (T/C%) were calculated based on the results of test groups to that of the control group. The semi-exponential curves of the percent of cell survival (T/C%) to the drug concentrations (FIG. 8) and IC50 were obtained by using Sigma-plot program.

GSTP1 = assay: Western blot to detect GSTP1 protein in LNCaP cells; assay type: cell-based, human; settings: LNCaP cells exposed 24 hrs
Method: Western blot to detect GSTP1 protein (FIG. 1): […] The cells were harvested, washed and total cellular proteins were extracted as described previously (Wang, […], et al. […] Cancer Res 61(20): 7544-51, 2001). Fifty μg cellular extracts were separated on a SDS-PAGE, electro-transferred to nitrocellulose filters, and immunoblotted initially with antibodies against GSTP1. The same membranes were stripped and re-probed with β-actin for loading control. The result was recorded by ECL films.

Sp1 = assay: Western blot to detect Sp1 in LNCaP cells; assay type: cell-based, human; settings: 24 hrs
Method: as §1

transcription factor Sp1 = assay: Sp1-luc luciferase activity assay in transfected LNCaP AD cells; assay type: cell-based, human; settings: 24 hrs
Source text: The Sp1-luc and mtSp1-luc contain three tandem repeats of consensus Sp1 sites driving the luciferase gene and its mutant. […] Effectene transfection reagent and luciferase assay kit were acquired from Qiagen (Valencia, Calif., USA) and Promega (Madison, Wis., USA). Reagents for protein electrophoresis were purchased from Bio-Rad company (USA). The other chemicals were purchased from Sigma (St. Louis, Mo.) otherwise as indicated. […] (Gao, M., Ossowski, L., and Ferrari, A. C. Activation of Rb and decline in androgen receptor protein precede retinoic acid-induced apoptosis in androgen-dependent LNCaP cells and their androgen-independent derivative. J Cell Physiol, 179: 336-346, 1999). The AD and AI cells were maintained in RPMI-1640 with 10% fetal bovine serum (FBS) and charcoal stripped fetal bovine serum, penicillin-streptomycin for incubation at 5% CO2 and 37° C. respectively. […] After incubation for 24 hrs at 5% CO2 and 37° C., the cells were transfected with 1 μg/dish of SP1-luciferase gene (Sp1-luc), or its mutant mtSp1-luc using Effectene (Qiagen, Valencia, Calif.) as the transfection reagent. […] The cells were collected, washed, lysed, and the lysates were used for luciferase activity assay using Promega luciferase assay system.

LNCaP AD = assay: MTT growth inhibition, hormone dependent LNCaP AD; assay type: cell-based; settings: Homo sapiens, 168 h; LNCaP AD, seven days, MTT; read-out: IC50, growth inhibition
Source text: (§2) The human prostate cancer cell line LNCaP AD was purchased from the American Type Culture Collection. LNCaP AI cell line was derived from LNCaP cells using a method described previously by Gao et al. (Gao, M., Ossowski, L., and Ferrari, A. C. Activation of Rb and decline in androgen receptor protein precede retinoic acid-induced apoptosis in androgen-dependent LNCaP cells and their androgen-independent derivative. J Cell Physiol, 179: 336-346, 1999). The AD and AI cells were maintained in RPMI-1640 with 10% fetal bovine serum (FBS) and charcoal stripped fetal bovine serum, penicillin-streptomycin for incubation at 5% CO2 and 37° C. respectively.
(§3) MTT: MTT and SRB method were used to determine the effects of various isothiocyanates on cell growth as described previously (Kreis, Budman et al, 1997). Briefly, human prostate cancer cell line LNCaP grown exponentially were aliquoted into 96-well plates at a density of 2500 cells/200 μl per well. Twenty-four hrs after the incubation, the cells were exposed for seven days to serial dilutions of indicated isothiocyanate or paclitaxel. […] The absorbance was measured at wavelength 540 nm. The percent of cell survival (T/C%) were calculated based on the results of test groups to that of the control group. […]

LNCaP AI = assay: MTT growth inhibition, hormone independent LNCaP AI; assay type: cell-based; settings: Homo sapiens, 168 h; LNCaP AI, seven days, MTT; read-out: IC50, growth inhibition
Source text: as §2, §3

Structure (SMILES) | expression of PSA (Western blot) (PSA) | Percent of Cell Survival (T/C %) ([1]; 0.0390 μM) | Percent of Cell Survival (T/C %) ([1]; 0.0780 μM) | Percent of Cell Survival (T/C %) ([1]; 0.1562 μM) | Percent of Cell Survival (T/C %) ([1]; 0.3125 μM) | Percent of Cell Survival (T/C %) ([1]; 0.6250 μM) | Percent of Cell Survival (T/C %) ([1]; 1.2500 μM) | Percent of Cell Survival (T/C %) ([1]; 2.5000 μM) | Percent of Cell Survival (T/C %) ([1]; 5.0000 μM) | Percent of Cell Survival (T/C %) ([1]; 10.0000 μM) | Percent of Cell Survival (T/C %) ([1]; 20.0000 μM) | IC50 [1] | expression of GSTP1 (Western blot) (GSTP1) | expression of Sp1 (Western blot) (Sp1) | luciferase activity of Sp1-luc transfected gene (transcription factor Sp1) | IC50 (LNCaP AD) | IC50 (LNCaP AI)
C=CCN=C=S [AITC, allyl isothiocyanate] | minimal activities | 98.84% | 98.92% | 98.26% | 98.55% | 97.10% | 99.49% | 83.95% | 47.60% | 41.01% | 38.69% | ~10000 nM | effectively induce | minimal activities | – | – | –
S=C=NCc1ccccc1 [BITC, benzyl isothiocyanate] | significantly inhibited | 94.09% | 95.64% | 97.91% | 95.82% | 71.25% | 27.95% | 14.83% | 5.07% | 0.88% | 0.94% | 800 to 1500 nM | effectively induce | significantly inhibited | – | – | –
O=S(=O)(O)c1ccc(N=C=S)cc1 [SPITC, 4-sulfophenylisothiocyanate] | no effect | 99.54% | 101.43% | 101.43% | 99.66% | 98.26% | 101.56% | 104.37% | 100.60% | 101.33% | 99.88% | – | effectively induce | no effect | – | – | –
CC(/C=C/C(=O)NO)=C\[C@@H](C)C(=O)c1ccc(N(C)C)cc1 [TSA, trichostatin A, reference compound] | – | – | – | – | – | – | – | – | – | – | – | – | – | – | significantly stimulated | – | –
CC(=O)O[C@H]1C(=O)[C@@]2(C)[C@H]([C@H](OC(=O)c3ccccc3)[C@]3(O)C[C@H](OC(=O)[C@H](O)[C@@H](NC(=O)c4ccccc4)c4ccccc4)C(C)=C1C3(C)C)[C@]1(OC(C)=O)CO[C@@H]1C[C@@H]2O [paclitaxel, reference compound] | – | – | – | – | – | – | – | – | – | – | – | – | – | – | – | 0.01 nM | 0.6 nM
